# Measurements taken from ChEMBL document CHEMBL1201862, “PubChem BioAssay data set” (2004).
#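 96-well plates; 48 h exposure; 5 concentrations. Endpoints by linear interpolation between flanking doses. Not reached: highest tested concentration assigned. The concentration for 50% growth inhibition is given as GI50.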 The source made the active and inactive calls. Cut-off read from the data, not from the text of the source: active = GI50 up to about 1.1 µM and inactive = higher.
# Columns and labels:
# Assay in all cases: growth of human tumour cells (NCI), 48 h
# [1] = system: A498
# [2] = system: CCRF-CEM
# [3] = system: HCT-116
# [4] = system: HOP-62
# [5] = system: Hs-578T
# [6] = system: K562
# [7] = system: M14
# [8] = system: MDA-MB-435
# [9] = system: NCI-H23
# [10] = system: OVCAR-8
# [11] = system: PC-3
# [12] = system: SK-MEL-2
# [13] = system: SK-MEL-5
# [14] = system: SN12C
# [15] = system: SNB-75
# [16] = system: SW-620
# [17] = system: UO-31
# [18] = system: NCI-H460
# [19] = system: NCI-H522
SMILES,GI50 [1],GI50 [2],GI50 [3],GI50 [4],GI50 [5],GI50 [6],GI50 [7],GI50 [8],GI50 [9],GI50 [10],GI50 [11],GI50 [12],GI50 [13],GI50 [14],GI50 [15],GI50 [16],GI50 [17],GI50 [18],GI50 [19]
COc1cc2oc(=O)cc(C)c2c(OC)c1O,26.1 µM (inactive),> 100 µM (inactive),> 100 µM (inactive),> 100 µM (inactive),25.2 µM (inactive),> 100 µM (inactive),> 100 µM (inactive),> 100 µM (inactive),> 100 µM (inactive),> 100 µM (inactive),> 100 µM (inactive),> 100 µM (inactive),> 100 µM (inactive),> 100 µM (inactive),> 100 µM (inactive),> 100 µM (inactive),> 100 µM (inactive),,
c1ccc(OC2=NC3=S(S2)SC(Oc2ccccc2)=N3)cc1,25.1 µM (inactive),9.59 µM (inactive),17.5 µM (inactive),26.2 µM (inactive),,16.5 µM (inactive),18.4 µM (inactive),,21.3 µM (inactive),22.2 µM (inactive),,13.6 µM (inactive),18 µM (inactive),20.6 µM (inactive),24.3 µM (inactive),15 µM (inactive),18.1 µM (inactive),30.2 µM (inactive),16.4 µM (inactive)
C=C(C(N)=O)c1ccc([N+](=O)[O-])o1,12.6 µM (inactive),3.22 µM (inactive),3.97 µM (inactive),22.8 µM (inactive),36.4 µM (inactive),3.61 µM (inactive),2.82 µM (inactive),2.56 µM (inactive),5.02 µM (inactive),2.9 µM (inactive),30.7 µM (inactive),5.93 µM (inactive),5.74 µM (inactive),10.3 µM (inactive),9.46 µM (inactive),5.81 µM (inactive),,19.9 µM (inactive),1.97 µM (inactive)
COc1cc(C(=O)Oc2c(C(C)=O)sc3c2c(=O)n(-c2ccccc2)c(=S)n3-c2ccccc2)cc(OC)c1OC,5.78 µM (inactive),15.3 µM (inactive),18.1 µM (inactive),24.4 µM (inactive),19.4 µM (inactive),33.6 µM (inactive),16.9 µM (inactive),22.5 µM (inactive),20.2 µM (inactive),18.8 µM (inactive),18.2 µM (inactive),,17.4 µM (inactive),11.9 µM (inactive),19.8 µM (inactive),25.2 µM (inactive),,12.6 µM (inactive),1.01 µM (active)
O=C(O)/C=C/c1ccc2c(c1)CC1(Cc3ccccc3C1)C2,75.3 µM (inactive),91.2 µM (inactive),23 µM (inactive),49.5 µM (inactive),> 100 µM (inactive),47.2 µM (inactive),48.1 µM (inactive),80.5 µM (inactive),57 µM (inactive),66.1 µM (inactive),53.6 µM (inactive),39.3 µM (inactive),43.5 µM (inactive),44.5 µM (inactive),,,80 µM (inactive),,54.5 µM (inactive)
CC1=CC[C@@H](C(C)(C)O)C[C@@H]1O,> 5000 µM (inactive),> 5000 µM (inactive),> 5000 µM (inactive),> 5000 µM (inactive),,> 5000 µM (inactive),> 5000 µM (inactive),,> 5000 µM (inactive),> 5000 µM (inactive),,> 5000 µM (inactive),> 5000 µM (inactive),> 5000 µM (inactive),> 5000 µM (inactive),> 5000 µM (inactive),> 5000 µM (inactive),> 5000 µM (inactive),> 5000 µM (inactive)
CCCCCCCCCc1cc(=O)c2c(O)cc(O)cc2o1,18.1 µM (inactive),24.3 µM (inactive),21.7 µM (inactive),14.8 µM (inactive),16.7 µM (inactive),10.2 µM (inactive),18.1 µM (inactive),18.7 µM (inactive),18.5 µM (inactive),20.2 µM (inactive),18 µM (inactive),18.9 µM (inactive),19.8 µM (inactive),22.2 µM (inactive),18.1 µM (inactive),27.9 µM (inactive),16.9 µM (inactive),22.6 µM (inactive),15.1 µM (inactive)
Cc1ccc2c(c1)c(=O)c1c(NCCN(C)C)ccc3nnn2c31,4.88 µM (inactive),2.21 µM (inactive),2.63 µM (inactive),3.59 µM (inactive),,2.91 µM (inactive),4.25 µM (inactive),,3.6 µM (inactive),2.98 µM (inactive),,8.04 µM (inactive),3.06 µM (inactive),3.45 µM (inactive),4.6 µM (inactive),1.57 µM (inactive),3.56 µM (inactive),2.67 µM (inactive),4.81 µM (inactive)
CC(C)CC(NC(=O)C(C)(CI)Cc1ccccc1)C(=O)Nc1ccccc1 (stereo unspecified),> 100 µM (inactive),> 100 µM (inactive),31 µM (inactive),,,> 100 µM (inactive),> 100 µM (inactive),> 100 µM (inactive),> 100 µM (inactive),> 100 µM (inactive),> 100 µM (inactive),> 100 µM (inactive),> 100 µM (inactive),> 100 µM (inactive),86.5 µM (inactive),> 100 µM (inactive),> 100 µM (inactive),> 100 µM (inactive),> 100 µM (inactive)
CC(=O)Nc1ccc(C(=O)NN2C(=O)C(Cl)C2c2ccccc2)cc1 (stereo unspecified),> 100 µM (inactive),> 100 µM (inactive),> 100 µM (inactive),> 100 µM (inactive),,> 100 µM (inactive),> 100 µM (inactive),,> 100 µM (inactive),> 100 µM (inactive),,> 100 µM (inactive),> 100 µM (inactive),> 100 µM (inactive),> 100 µM (inactive),> 100 µM (inactive),> 100 µM (inactive),> 100 µM (inactive),> 100 µM (inactive)
C[N+]1(CCNP(=S)(NCC[N+]2(C)Cc3c(ccc4c3OCO4)C3C2c2cc4c(cc2C[C@@H]3O)OCO4)NCC[N+]2(C)Cc3c(ccc4c3OCO4)C3C2c2cc4c(cc2C[C@@H]3O)OCO4)Cc2c(ccc3c2OCO3)C2C1c1cc3c(cc1C[C@H]2O)OCO3 (stereo partly specified),< 0.00191 µM (active),1.27 µM (inactive),< 0.00191 µM (active),< 0.00191 µM (active),,< 0.00191 µM (active),< 0.00191 µM (active),,< 0.00191 µM (active),< 0.00191 µM (active),,< 0.00191 µM (active),< 0.00191 µM (active),< 0.00191 µM (active),< 0.00191 µM (active),< 0.00191 µM (active),< 0.00191 µM (active),< 0.00191 µM (active),< 0.00191 µM (active)
CCC(C)(O)c1cn(-c2ccc(S(=O)(=O)O)cc2)nn1 (stereo unspecified),> 100 µM (inactive),> 100 µM (inactive),> 100 µM (inactive),> 100 µM (inactive),,> 100 µM (inactive),> 100 µM (inactive),,> 100 µM (inactive),> 100 µM (inactive),,> 100 µM (inactive),> 100 µM (inactive),> 100 µM (inactive),> 100 µM (inactive),> 100 µM (inactive),> 100 µM (inactive),> 100 µM (inactive),> 100 µM (inactive)
CC(N)Cc1cccc(C(F)(F)F)c1 (stereo unspecified),> 100 µM (inactive),> 100 µM (inactive),> 100 µM (inactive),> 100 µM (inactive),,> 100 µM (inactive),> 100 µM (inactive),,> 100 µM (inactive),> 100 µM (inactive),,> 100 µM (inactive),> 100 µM (inactive),> 100 µM (inactive),> 100 µM (inactive),> 100 µM (inactive),> 100 µM (inactive),> 100 µM (inactive),> 100 µM (inactive)
CC1=NN(c2cccc(Cl)c2)C2(C1=Cc1ccc(O)cc1)C(Cl)C(=O)N2c1nc2ccccc2s1 (stereo unspecified),13.6 µM (inactive),28.6 µM (inactive),15.9 µM (inactive),20.9 µM (inactive),40.6 µM (inactive),18.6 µM (inactive),24.7 µM (inactive),25.1 µM (inactive),16 µM (inactive),27 µM (inactive),19.4 µM (inactive),20.4 µM (inactive),16.6 µM (inactive),,,15.4 µM (inactive),12.9 µM (inactive),24.9 µM (inactive),22.2 µM (inactive)
COc1cc2c(c(OC)c1OC)-c1ccc(SC)c(=O)cc1[C@@H](NCc1ccc(F)cc1)CC2,< 0.0075 µM (active),< 0.0075 µM (active),< 0.0075 µM (active),< 0.0075 µM (active),,< 0.0075 µM (active),< 0.0075 µM (active),,< 0.0075 µM (active),< 0.0075 µM (active),,< 0.0075 µM (active),< 0.0075 µM (active),< 0.0075 µM (active),12.7 µM (inactive),< 0.0075 µM (active),1.03 µM (active),< 0.0075 µM (active),< 0.0075 µM (active)
COC(=O)NC1(NC(=O)OC)NC(=O)c2cc(OC)c(OC)cc2N1,,5.21 µM (inactive),29.8 µM (inactive),3.14 µM (inactive),29.4 µM (inactive),34.2 µM (inactive),20.8 µM (inactive),2.97 µM (inactive),50.2 µM (inactive),65.6 µM (inactive),26.1 µM (inactive),19 µM (inactive),32.3 µM (inactive),> 100 µM (inactive),,42.6 µM (inactive),40 µM (inactive),30.7 µM (inactive),2.54 µM (inactive)
